Test results from patent US9101620B2, “Polymorph of 3-(substituteddihydroisoindolinone-2-yl)-2,6-dioxopiperidine, and pharmaceutical compositions thereof” (Nanjing Cavendish Bio-Engineering Technology Co., Ltd., priority 2009, dated 2015).
Entries after “also recorded” stand apart in the source; their conditions may differ. Blank lines part the entries; values can stand above or below the molecule they belong to.

Columns and labels:
Type in all cases: physicochemical
[1] = Solubility test according to Chinese Pharmacopoeia Edition 2005; settings: for Dissolving status: within 30 minutes
Procedure: Test was performed according to the Examples of Chinese Pharmacopoeia Edition 2005. Method: a definite quantity of the Polymorph I of 3-(4-amino-1-oxo-1,3-dihydro-2H-isoindole-2-yl)-piperidine-2,6-dione (hemihydrate) measured accurately was added into a certain quantity of solvent slowly, while the mixture was shaken strongly for 30 seconds every 5 minutes and the dissolving status within 30 minutes was observed. Results were listed in Tab. 1.
(§1) Test was performed according to the Examples of Chinese Pharmacopoeia Edition 2005. Method: a definite quantity of the (acetonitrile) solvated Polymorph II of 3-(4-amino-1-oxo-1,3-dihydro-2H-isoindole-2-yl)-piperidine-2,6-dione measured accurately was added into a certain quantity of solvent slowly, while the mixture was shaken strongly for 30 seconds every 5 minutes and the dissolving status within 30 minutes was observed. Results were listed in Tab. 61.
as §1, with “(acetone)” for “(acetonitrile)”, “polymorph III” for “Polymorph II”, “slowly” for “slowly,”, “11.” for “61.”

[2] = High humidity test (room temperature, 75±5% relative humidity); settings: for Change of appearance and content (in words) / Moisture absorption (in words): high humidity test, summary; for Appearance / Content / Weight gain of moisture absorption: room temperature, 75±5% relative humidity
Procedure: (§2) The raw material of Polymorph 1 of 3-(4-amino-1-oxo-1,3-dihydro-2H-isoindole-2-yl)-piperidine-2,6-dione (hemihydrate) was distributed homogeneously in open petri dish with thickness of the raw material not more than 5 mm and put into thermostatic and humidostatic incubator at room temperature (about 25° C.) and 75±5% relative humidity. Sample was tested at the 5th and 10th day respectively and the results were contrasted with that of the Day 0. Results were listed in Tab. 4. After high humidity test of 75±5% relative humidity for 10 days, the X-ray powder diffraction pattern was shown in FIG. 9; DSC diagram was in FIG. 10-1; TGA diagram was in FIG. 10-2.
as §2, with “Polymorph II” for “Polymorph 1”, “3-(4-amino-1-oxo-1,3-dihydro-2H-isoindole-2-yl)-piperidine-2,6-dione” for “3-(4-amino-1-oxo-1,3-dihydro-2H-isoindole-2-yl)-piperidine-2,6-dione (hemihydrate)”, “Tab. 9.” for “Tab. 4.”, “FIG. 20;” for “FIG. 9;”, “FIG. 21-1;” for “FIG. 10-1;”, “FIG. 21-2.” for “FIG. 10-2.”
as §2, with “Polymorph III” for “Polymorph 1”, “3-(4-amino-1-oxo-1,3-dihydro-2H-isoindole-2-yl)-piperidine-2,6-dione” for “3-(4-amino-1-oxo-1,3-dihydro-2H-isoindole-2-yl)-piperidine-2,6-dione (hemihydrate)”, “Tab. 14.” for “Tab. 4.”, “FIG. 31;” for “FIG. 9;”, “FIG. 32-1;” for “FIG. 10-1;”, “FIG. 32-2.” for “FIG. 10-2.”

[3] = High temperature test (60° C.); settings: for Appearance / Content / Related substance: 60° C.; for Variation of appearance and content (in words): high temperature (60° C.) test, summary
Text: The conditions and methods of related substance test involved in this invention were in accordance with HPLC (Appendix VD of Chinese Pharmacopoeia Edition 2005).
Chromatographic conditions and system applicability: octadecylsilane bonded silica as the filler; 0.01 mol/L of potassium dihydrogen phosphate (adjusted to pH 3.5 by phosphoric acid)-methanol-acetonitrile (80:15:5) as the mobile phase; detection wavelength was 240 nm; the number of theoretical plates should be not less than 2000, calculated according to the peak of 3-(4-amino-1-oxo-1,3-dihydro-2H-isoindole-2-yl)-piperidine-2,6-dione. The resolution of the peak of 3-(4-amino-1-oxo-1,3-dihydro-2H-isoindole-2-yl)-piperidine-2,6-dione from the peaks of adjacent impurities should meet requirements.
The raw material of Polymorph I of 3-(4-amino-1-oxo-1,3-dihydro-2H-isoindole-2-yl)-piperidine-2,6-dione (hemihydrate) was put into a clean sealed glass bottle and then put in thermostatic drying chamber at 60° C. Sample was tested at the 5th and 10th day respectively and the results were contrasted with that of the Day 0. Results were listed in Tab. 3. After high temperature test of 60° C. for 10 days, the X-ray powder diffraction pattern was shown FIG. 7; DSC diagram was in FIG. 8.
(§3) The raw material of Polymorph II of 3-(4-amino-1-oxo-1,3-dihydro-2H-isoindole-2-yl)-piperidine-2,6-dione was put into a clean sealed glass bottle and then put in thermostatic drying chamber at 60° C. Sample was tested at the 5th and 10th day respectively and the results were contrasted with that of the Day 0. Results were listed in Tab. 8. After high temperature test of 60° C. for 10 days, the X-ray powder diffraction pattern was shown in FIG. 18; DSC diagram was in FIG. 19.
as §3, with “III” for “II”, “13.” for “8.”, “29;” for “18;”, “30.” for “19.”

Conclusion (solubility) ([1]; 0.1 mol/L HCl solution): slightly soluble | Dissolving status ([1]; 0.1 mol/L HCl solution): fully | Conclusion (solubility) ([1]; 0.1 mol/L NaOH solution): sparingly soluble | Dissolving status ([1]; 0.1 mol/L NaOH solution): fully | Conclusion (solubility) ([1]; DMF (N,N-dimethylformamide)): soluble | Dissolving status ([1]; DMF): fully | Conclusion (solubility) ([1]; DMSO (dimethylsulfoxide)): soluble | Dissolving status ([1]; DMSO): fully | Conclusion (solubility) ([1]; acetic acid): sparingly soluble | Dissolving status ([1]; acetic acid): fully | Conclusion (solubility) ([1]; acetone): slightly soluble | Dissolving status ([1]; acetone): fully | Conclusion (solubility) ([1]; acetonitrile): slightly soluble | Dissolving status ([1]; acetonitrile): fully | Conclusion (solubility) ([1]; ethanol): very slightly soluble and very | Dissolving status ([1]; ethanol): fully | Conclusion (solubility) ([1]; ethyl acetate): very slightly soluble and very | Dissolving status ([1]; ethyl acetate): fully | Conclusion (solubility) ([1]; methanol): slightly soluble | Dissolving status ([1]; methanol): fully | Dissolving status ([1]; water): cannot fully | Change of appearance and content (in words) [2]: few obvious change | Moisture absorption (in words) [2]: lower moisture absorption | Appearance ([2]; 0 days): off-white powder | Content ([2]; 0 days): 99.86% | Appearance ([2]; 5 days): off-white powder | Content ([2]; 5 days): 99.83% | Weight gain of moisture absorption ([2]; 5 days): 1.25% | Appearance ([2]; 10 days): off-white powder | Content ([2]; 10 days): 99.82% | Weight gain of moisture absorption ([2]; 10 days): 1.37% | Appearance ([3]; 0 days): off-white powder | Content ([3]; 0 days): 99.86% | Related substance ([3]; 0 days): 0.07% | Appearance ([3]; 5 days): off-white powder | Content ([3]; 5 days): 99.84% | Related substance ([3]; 5 days): 0.07% | Appearance ([3]; 10 days): off-white powder | Content ([3]; 10 days): 99.83% | Related substance ([3]; 10 days): 0.08% | Variation of appearance and content (in words) [3]: few significant variation
SMILES: Nc1cccc2c1CN(C1CCC(=O)NC1=O)C2=O (single isomer, unassigned) [Polymorph III, 3-(4-amino-1-oxo-1,3-dihydro-2H-isoindole-2-yl)-piperidine-2,6-dione]
Conclusion (solubility) ([1]; water): very slightly soluble; also recorded: practically

Conclusion (solubility) ([1]; 0.1 mol/L HCl solution): sparingly soluble | Dissolving status ([1]; 0.1 mol/L HCl solution): fully | Conclusion (solubility) ([1]; 0.1 mol/L NaOH solution): slightly soluble | Dissolving status ([1]; 0.1 mol/L NaOH solution): fully | Conclusion (solubility) ([1]; DMF (N,N-dimethylformamide)): freely soluble | Dissolving status ([1]; DMF): fully | Conclusion (solubility) ([1]; DMSO (dimethylsulfoxide)): freely soluble | Dissolving status ([1]; DMSO): fully | Conclusion (solubility) ([1]; acetic acid): sparingly soluble | Dissolving status ([1]; acetic acid): fully | Conclusion (solubility) ([1]; acetone): slightly soluble | Dissolving status ([1]; acetone): fully | Conclusion (solubility) ([1]; acetonitrile): slightly soluble | Dissolving status ([1]; acetonitrile): fully | Conclusion (solubility) ([1]; ethanol): very slightly soluble | Dissolving status ([1]; ethanol): fully | Conclusion (solubility) ([1]; ethyl acetate): very slightly soluble | Dissolving status ([1]; ethyl acetate): fully | Conclusion (solubility) ([1]; methanol): very slightly soluble | Dissolving status ([1]; methanol): fully | Dissolving status ([1]; water): cannot fully | Change of appearance and content (in words) [2]: few obvious change | Moisture absorption (in words) [2]: lower moisture absorption | Appearance ([2]; 0 days): off-white powder | Content ([2]; 0 days): 99.89% | Appearance ([2]; 5 days): off-white powder | Content ([2]; 5 days): 99.87% | Weight gain of moisture absorption ([2]; 5 days): 1.33% | Appearance ([2]; 10 days): off-white powder | Content ([2]; 10 days): 99.87% | Weight gain of moisture absorption ([2]; 10 days): 2.15% | Appearance ([3]; 0 days): Off-white powder | Content ([3]; 0 days): 99.89% | Related substance ([3]; 0 days): 0.09% | Appearance ([3]; 5 days): Off-white powder | Content ([3]; 5 days): 99.86% | Related substance ([3]; 5 days): 0.09% | Appearance ([3]; 10 days): Off-white powder | Content ([3]; 10 days): 99.87% | Related substance ([3]; 10 days): 0.10% | Variation of appearance and content (in words) [3]: few significant variation
SMILES: Nc1cccc2c1CN(C1CCC(=O)NC1=O)C2=O (single isomer, unassigned) [Polymorph II, 3-(4-amino-1-oxo-1,3-dihydro-2H-isoindole-2-yl)-piperidine-2,6-dione]
Conclusion (solubility) ([1]; water): nearly insoluble; also recorded: practically
